For one data set, the system named is T-cell line. Description: Tested for its effective dose required to inhibit the replication of HIV-1 in human T-cell line. The conditions noted are these: read-out: ED50 (the source's name). Type of data set: functional.
Data set [1] in a line: Tested for the cytotoxicity against HIV-1 in human T-cell line. Type of data set: cell-based. The conditions noted are these: read-out: TD50 (the source's name).

Where only a bound is given, the exact number is not on record here.

Consider `COC(=O)C(NP(=O)(OCC1OC(n2cc(C)c(=O)[nH]c2=O)CC1F)OCC(Cl)(Cl)Cl)C(C)C` (stereo not given), for which, in the data set with T-cell line, the EC50 was found to be 0.3 µM. Besides, the CC50 in data set [1] was > 100 µM.

Consider `COC(=O)C(C)NP(=O)(OCC1OC(n2cc(C)c(=O)[nH]c2=O)CC1F)OCC(Cl)(Cl)Cl` (stereo not given), for which, in the data set on T-cell line, the EC50 worked out at 0.3 µM. The CC50 in data set [1] was > 100 µM.

Take `COC(=O)C(Cc1ccccc1)NP(=O)(NC(Cc1ccccc1)C(=O)OC)OCC1OC(n2cc(C)c(=O)[nH]c2=O)CC1F` (stereo not given): in the data set with T-cell line, the EC50 was 5 µM. Further, in data set [1], the CC50 was > 100 µM.

Consider `Cc1cn(C2CC(F)C(COP(=O)(OCC(Cl)(Cl)Cl)OCC(Cl)(Cl)Cl)O2)c(=O)[nH]c1=O` (stereo not given), for which the EC50 in the data set with T-cell line came to 0.01 µM. Besides, the CC50 in data set [1] worked out at 100 µM.

In the case of `Cc1cn([C@H]2C[C@H](F)[C@@H](CO)O2)c(=O)[nH]c1=O` [ALOVUDINE], the EC50 with T-cell line was found to be 0.005 µM. The CC50 in data set [1] was 100 µM.

The values above are taken from ChEMBL document CHEMBL1151515, “Attempts to introduce chemotherapeutic nucleotides into cells: studies on the anti-HIV agent FDT” (Bioorg Med Chem Lett, 1991).
